Literature values in patent publication US20250179582A1, “METHODS FOR TREATING CANCER PATIENTS WITH HOMOLOGOUS RECOMBINATION DEFICIENCY BASED ON TEMPLATED INSERTIONS” (Memorial Sloan-Kettering Cancer Center, priority 2022, published 2025).
Like-named read-outs stand apart in the source and are kept apart here.

Tested on: relapsed high-grade serous ovarian/endometrioid/primary peritoneal/or fallopian carcinoma
Conditions: rucaparib versus placebo

CNCc1ccc(-c2[nH]c3cc(F)cc4c3c2CCNC4=O)cc1 [rucaparib]
progression-free survival hazard ratio (HR) (germline or somatic mutated BRCA1/2 cohort, patients with at least a partial response to platinum therapy): 0.23 | progression-free survival hazard ratio (HR) (patients with high genomic LOH): 0.44 | progression-free survival hazard ratio (HR) (patients with low genomic LOH): 0.58
